Experimental data reported in publication PMC10485887, “PET Evaluation of the Novel F-18 Labeled Reversible Radioligand [^18F]GEH200449 for Detection of Monoamine Oxidase-B in the Non-Human Primate Brain” (ACS Chemical Neuroscience, 2023).

Columns and labels:
[1] = PET whole-brain radioactivity (brain exposure) at baseline; format: in vivo, Macaca fascicularis; conditions: for whole-brain radioactivity, maximum concentration: IV injection
Description: Two male and three female NHPs (#1–5) of the species M. fascicularis, weighing 4.2–8.8 kg, were supplied by the Astrid Fagraeus Laboratory, Karolinska Institutet, Solna, Sweden. Anesthesia was initiated by intramuscular injection of ketamine hydrochloride (ca. 10 mg/kg, Ketalar, Pfizer) and maintained by intravenous infusion of a mixture of ketamine hydrochloride (4 mg/kg/h) and xylazine hydrochloride (0.4 mg/kg/h Rompun Vet., Bayer).
PET measurements were conducted using the high-resolution research tomograph system (Siemens Molecular Imaging, Knoxville, TN, USA) for NHPs #1–4 and using the LFER 150 PET/CT system (Mediso Ltd., Budapest, Hungary) for NHP #5.
(§1) At start of PET data acquisition, a sterile physiological phosphate buffer solution (pH = 7.4) of [^18F]GEH200449 (injected radioactivity, 107–167 MBq) was injected as a bolus into a sural vein. Emission data were acquired in list mode for 123 min. Arterial blood was sampled as previously described[28] using an automated blood sampling system (ABSS) during the first 3 min of each PET measurement. Subsequently, arterial blood samples (0.7–2.5 mL) were manually drawn at 7, 15, 30, 60, 90, and 120 min after injection of [^18F]GEH200449. After centrifugation, 0.15–1.0 mL of plasma was pipetted and plasma radioactivity was measured in a well counter. In addition, samples were taken directly from the ABSS at 0.5, 1, 1.5, 2, 2.5, and 3 min for cross-calibration with the well counter and for the determination of the plasma-to-blood ratio.
Dynamic images were reconstructed as previously described.[30],[31] Regions of interest (ROIs) for the whole brain and selected regions (caudate nucleus, putamen, thalamus, occipital cortex, prefrontal cortex, and cerebellum) were manually delineated on T1-weighted magnetic resonance images (MRIs) acquired as previously described.[21],[27] PET images were coregistered to the MRIs, and time-activity curves were generated by pooling ROIs for each paired anatomical region and applying the pooled ROIs to the coregistered PET images. […]

[2] = Fraction of unchanged radioligand in arterial plasma (radiometabolite analysis); format: in vivo, Macaca fascicularis; conditions: 30 min after injection
Description: as §1
The fraction of plasma radioactivity corresponding to the unchanged radioligand in plasma was determined from arterial plasma samples collected at 2, 7, 15, 30, 60, 90, and 120 min after injection of [^18F]GEH200449 according to previously described procedures.[29]

MAO-B [3] = format: in vivo, Macaca fascicularis; conditions: from pretreatment and displacement with reference competitors
Description: Each PET measurement was performed on a separate experimental day. Experiments conducted in the same NHP were separated by at least 6 weeks. Baseline PET measurements were initially undertaken in each of the five NHPs.
Time curves for regional [^18F]GEH200449 binding at baseline were analyzed by kinetic modeling using 1-TC and 2-TC models,[32] and VT as outcome measures. Akaike information criterion[33] and F statistics were applied to select the preferred model. Regional estimates of VT for [^18F]GEH200449 were also obtained using the Logan linear graphical method[34] with t* fixed at 40 min. The analyses were performed using the kinetic modeling tool in PMOD v. 4.3. Occupancy at [^18F]GEH200449 binding sites was estimated based on regional VT values obtained by the Logan method at baseline and after drug administration according to a graphical procedure described in the literature.[22]

MAO-B [4] = test system: MAO-B; design: method as in PMID 33284012; conditions: autoradiography; cited from earlier work

O=c1ccoc2ccc(OCc3ccc([18F])nc3)cc12 [[^18F]GEH200449]
whole-brain radioactivity, maximum concentration [1]: 4.0–6.4 %ID
whole-brain radioactivity, maximum concentration ([1]; n = 5 NHPs): 3.4–5.2 SUV
time to maximum whole-brain radioactivity concentration ([1]; after IV injection): 1.8 to 7.5 min
parent radioligand remaining unchanged in plasma [2]: 5–28%
character of binding in the NHP brain (MAO-B [3]): reversible and selective toward MAO-B
binding in human brain tissue (MAO-B [4]): specific binding to MAO-B
non-specific binding in human brain tissue (MAO-B [4]): low
